Reference: US5830910A (priority 1995, dated 1998)
Like-named read-outs stand apart in the source and are kept apart here.

Key:
[1] = system: cultured hippocampal neurons; assay: cells; format: cell-based, rat
Source text: (§1) Dissociated embryonic rat hippocampal cell cultures were established and maintained. All procedures conformed with the NIH Guide for the Care and Use of Laboratory Animals and were approved by the University of Kentucky Animal Care and Use Committee. Cultures were maintained on a polyethyleneimine-coated substrate in plastic 35-mm dishes or 96 wall plates (for cell survival studies) or glass-bottom 35-mm dishes (for [Ca^2+ ]i imaging studies). The cell density was ^~ 70-100 cells/mm^2. Cells were maintained in Eagle's minimum essential medium supplemented 10% with fetal bovine serum and containing 20 mM sodium pyruvate. […] Aβ25-35 (Bachem, lot ZJ744) and Aβ1-40 (Bachem, lot ZK600) were stored in the lyophilized form, and stocks were prepared immediately before use by dissolving the peptide at a concentration of 1 mM in sterile distilled water. […] Glutamate and colchicine (Sigma) were prepared as 200-500x stocks in saline. Cytochalasins D and E (Sigma) and calcium ionophore 4-bromo-A23187 (Calbiochem) were prepared as 500x stocks in dimethyl sulfoxide. Vitamin E (α-tocopherol; Sigma) was prepared as a 500x stock in ethanol. Nordihydroguaiaretic acid and FeSo4 were prepared as 500x stocks in sterile water.
(§2) Neuronal survival was quantified by counting viable neurons in the same microscope fields (10x objective) immediately before experimental treatment and at time points after treatment. In addition, cells were grown in 96-well plates and Alamar blue fluorescence (Alamar Laboratories)was quantified by using a fluorescence plate reader. Alamar Blue is a non-fluorescent substrate that, after reduction by cell metabolites, becomes fluorescent. Usually neurons that died in the time intervals (20-48 h) between examination points were absent. Viability of the remaining neurons was assessed by morphological criteria. Neutrons with intact neurites of uniform diameter and a soma with a smooth, round appearance were considered viable, whereas neurons with fragmented neurites and a vacuolated or swollen soma were considered nonviable. Survival values were expressed as percentages of the initial number of neurons present before experimental treatment. Statistical comparisons were made using ANOVA and Scheffe post-hoc tests for pairwise comparisons.
FIG. 5. […] Cytochalasin D was added to cultures 30 min prior to exposure to glutamate, and control cultures were exposed to 0.2% dimethylsulfoxide.
(A) Neuronal survival was quantified in cultures that had been pretreated with the indicated concentrations of cytochalasin D and then exposed to 50 μM glutamate for 20 h. Values represent the means and SEM of determinations made in four separate cultures. […] Pairwise statistical comparisons of cytochalasin-treated cultures with the control survival (Scheffe's test) indicated 1 nM cytochalasin D, P<0.05; 10 nM cytochalasin D, P<0.001; 100 and 1000 nM cytochalasin D, P<0.0001.
(B) Neuronal survival was quantified in cultures that had been pretreated with either vehicle (control) or 100 nM cytochalasin D and then exposed to the indicated concentrations of glutamate for 20 h. Values represent the means and SEM of determinations made in four separate cultures. […] ANOVA with Scheffe's post hoc test.
FIG. 6. (A) Cultures were pretreated with 100 nM cytochalasin D (CyD), 100 nM cytochalasin E (CyE), or 100 nM colchicine (Colch). Cultures were then exposed to 50 μM glutamate for 20 h. Values for neuronal survival represent the means and SEM of determinations made in four separate cultures. *P<0.001 compared to control value. **P<0.001 compared to value for cultures exposed to glutamate alone.
[…] Values represent the means and SEM of determinations made in four separate cultures. *P<0.01 compared to value for cultures exposed to 20 μM glutamate alone. **P<0.05 compared to cultures exposed to 50 μM glutamate alone.

[2] = system: cultured hippocampal neurons; format: cell-based, rat
Source text: as §1, §2
FIG. 12. (A) Cultures were pretreated for 1 h with vehicle 0.2% dimethyl sulfoxide (Control) or 100 nM cytochalasin D (CyD) and were exposed to the indicated concentrations of Aβ25-35 for 48 h. Data are mean and SEM values of determinations made in four separate cultures.
(B) Cultures were pretreated for 1 h with the indicated concentrations of cytochalasin D and then exposed to 50 μM Aβ25-35; parallel cultures were exposed to cytochalasin D alone (Control) . Data are mean and SEM values of determinations made in four separate cultures.
FIG. 14. Cultures were exposed to 100 nM colchicine; 50 μM Aβ; 100 nM colchicine plus 50 μM Aβ; 100 nM cytochalasin E (CyE) plus Aβ (colchicine and cytochalasin E were added 1 h before Aβ); neuronal survival was assessed 48 h later. Data are mean and SEM values of determinations made in four separate cultures. *p<0.01, compared with values for control or colchicine alone. **p<0.01, compared with value for cultures exposed to Aβ alone.

[3] = system: cultured hippocampal neurons; assay: iron (FeSO4) neurotoxicity; format: cell-based, rat
Source text: as §1, §2
FIG. 8. Cultures were preincubated 1 h in the presence of 0.5% dimethylsulfoxide (control), 100 nM cytochalasin D, 50 μg/ml vitamin E (VitE), or 2 μM nordihydroguairetic acid (NDGA). Cultures were then exposed for 6 h to the indicated concentrations of FeSO4 and neuronal survival was quantified. Values represent the means and SEM of determinations made in four separate cultures. *P<0.001 compared to value for cultures exposed to 100 μM FeSO4 alone.

[4] = system: cultured hippocampal neurons; assay: cells; format: cell-based, rat; settings: Rattus norvegicus, Hippocampal neuron
Source text: as §1, §2
Values represent the means and SEM of 4 separate cultures (cell counts) or 4 culture wells (Alamar blue assay). ^a p<0.05 compared to control value. ^b p<0.001 compound to control value. ^c p<0.01 compared to value for glutamate-treated cultures. ^d p<0.005 compared to value for glutamate-treated cultures. ^e p<0.001 compared to value for Aβ-treated cultures. ^f p<0.001 compared to value for cultures treated with 20 μM glutamate. ^g p<0.001 compared to cultures treated with 50 μM Aβ+20 μM glutamate. n.d. not determined.

[5] = system: cultured hippocampal neurons; assay: cells; format: cell-based, rat; remark: listed apart in the source
[6] = system: neuronal [Ca^2+]i in cultured hippocampal neurons; assay: measurement of [Ca^2+]i, fura-2 imaging; format: cell-based, rat; settings: 10 μM, 3 h pretreatment; 50 μM glutamate
Source text: as §1
Fluorescence ratio imaging of the Ca^2+ indicator dye fura-2 was used to quantify [Ca^2+ ]i in neuronal somata. Cells were incubated for 30-40 min in the presence of 2 μM acetoxymethyl ester form of the [Ca^2+ ]i indicator dye fura-2 and were then washed twice (2 ml/wash) with fresh medium and allowed to incubate at least 40 min before imaging. Immediately before imaging, the normal culture medium was replaced with Hanks' balanced saline solution (GIBCO) containing 10 mM HEPES buffer and 10 mM of glucose. Cells were imaged using a Zeiss Attofluor system with a oil objective or Quantex system with a 40x oil objective. The ratio of the fluorescence emission using two different excitation wavelengths (334 and 380 nm) was used to determine [Ca^2+ ]i. The system was calibrated using solutions containing either no Ca^2+ or a saturating level of Ca^2+ (1 mM) according to the following formula: [Ca^2+ ]i =KD [(R-Rmin) / (Rmax -R)] (F0 /FS). Values represent the average [Ca^2+ ]i in the neuronal cell body. Experimental treatments were added to the bathing medium by dilution from 100-500x stocks.
(A) Cultures were pretreated for 1 hr with 100 nM cytochalasin D and then [Ca^2+ ]i in neurons was monitored prior to and following exposure to 50 μM glutamate. The records represent the mean [Ca^2+ ]i in 8-12 neurons. Similar results were obtained in 4 separate experiments.
(B) Aβ-induced potentiation of [Ca^2+ ]i response to glutamate is abrogated by cytochalasin D. Cultures were left untreated (Control) or were exposed to 20 μM Aβ25-35 for 6 hr or cytochalasin D plus Aβ25-35 for 6 hr. The [Ca^2+ ]i was then monitored prior to following exposure to 50 μM glutamate. Values represent the means of 8-14 neurons. Similar results were obtained in 3 separate experiments.
(C) Cultures were pretreated for 3 hr with 50 μM Aβ alone or in combination with 100 nM cytochalasin D. The [Ca^2+ ]i in neurons was then monitored prior to and following exposure to 50 mM KCl. Values represent the mean of 14-23 neurons. Similar results were obtained in a separate experiment.
(D) Cultures were pretreated for 1 h with 100 nM cytochalasin D. The [Ca^2+ ]i in neurons was measured immediately prior to, and at 5 min following, exposure to the indicated concentrations of glutamate. Values represent the means and SEM of determinations made in 17-26 neurons. *P<0.05 (10 μM glutamate), P<0.02 (50 μM glutamate), P<0.01 (100 μAM glutamate) compared to corresponding control values.
FIG. 9. Cultures were pretreated for 3 h with vehicle (control) or 10 μM jasplakinolide. The [Ca^2+ ]i was monitored prior to and following exposure to 50 μM glutamate. Values represent the mean of determinations made in 10-12 neurons. Similar results were obtained in two additional experiments.
FIG. 10. […]

[7] = system: hippocampal region CA3 neurons; assay: kainate lesion paradigm, CA3 neurons; format: in vivo, rat (Sprague-Dawley)
Experimental: A kainate lesion paradigm was employed in adult rats to determine whether cytochalasin D was also excitoprotective. Twenty-four adult male Sprague-Dawley rats (250-300 g) were divided into the indicated experimental groups (4-5 rats/group). Kainate (0.5 µg/[…]) was injected stereotaxically into region CA1 of the right hippocampus of anesthetized rats. Cytochalasin D (the indicated concentration in 1 μl of saline-1% DMSO) or vehicle was infused into the right lateral ventricle during a 5-10 min period immediately following kainate injection. Rats were killed 48 hr later and perfused transcardially with 4% paraformaldehyde. Brain sections (30 μm) were stained with cresyl violet and stained neurons in three adjacent 40X microscope fields of hippocampal region CA3 were counted (5 sections/rat) . The neuronal counts were performed in sections removed approximately 200-400 μm from the injection site. This method results in highly reproducible, 75-99%, neuronal loss in the CA3 region in over 99% of the rats injected with kainate (calculations based on 302 rats receiving intra-hippocampal kainate). […] Approximately 80% of the neurons were killed by kainate in control animals receiving an intracerebroventricular infusion of saline immediately following kainate administration.
Cresyl violet-stained coronal sections from brains of rats administered kainate alone (left) of kainate plus cytochalasin D (CyD; right). […] Lower micrographs are high magnification of a region of CA3 from the sections shown in the upper panels.
FIG. 3. Counts of viable neurons were made in region CA3 of Sham-operated rats, and rats infused intraventricularly with vehicle or increasing concentration of cytochalasin D […] unilateral kainate injection into region CA1 of the hippocampus. Neuronal survival in the kainate injected hippocampus is expressed as a percentage of neurons in the contralateral hippocampus. Values represent the mean and SEM (4 or 5 rats/group). *p<0.01 compared to value for sham rats. **p<0.01 compared to value for vehicle-infused rats. (ANOVA with Scheffe's post-hoc test).

[8] = read-out: Neuron Survival (% of control), Alamar Blue Assay

Structure (SMILES): C[C@H]1C/C=C/[C@H]2[C@@H]3O[C@]3(C)[C@@H](C)[C@H]3[C@H](Cc4ccccc4)NC(=O)[C@]32OC(=O)O/C=C/[C@@](C)(O)C1=O [Cytochalasin E, cytochalasin E]
- protection against glutamate toxicity ([1]; 100 nM, 50 μM glutamate, 20 h): significant protection against glutamate toxicity
- protection against toxicity of glutamate ([1]; 10-100 nM): protected
- effect on Aβ neurotoxicity ([2]; 100 nM, added 1 h before 50 μM Aβ, 48 h): attenuated Aβ neurotoxicity significantly
- protection against toxicity of Aβ ([2]; 10-100 nM): protected

Structure (SMILES): O=S(=O)([O-])[O-].[Fe+2] [FeSo4]
- loss of neurons ([3]; FeSO4 10-100 nM as printed, 6 h): concentration-dependent loss of neurons

Structure (SMILES): N[C@@H](CCC(=O)O)C(=O)O [Glutamate, glutamate, reference compound]
- viability at 20 µM [4, 8]: 74 ± 0.7%
- viability at 100 µM [4, 8]: 18 ± 5.4%
- viability at 100 µM ([4]; read-out: Neuron Survival (% of control), Cell Counts): 15 ± 3.3%
- CC50 ([1]; Rattus norvegicus, Hippocampal neuron, 20 h, read-out: ED50 for reduction in neuronal survival): ~35 µM
- cytotoxicity at 100 µM ([1]; Rattus norvegicus, Hippocampal neuron, 20 h, read-out: maximum killing of neurons): > 80%
- cytotoxicity at 50 µM ([1]; Rattus norvegicus, Hippocampal neuron, 20 h, read-out: neurons killed): > 70%
- viability at 100 µM ([5]; Rattus norvegicus, Hippocampal neuron, 24 h, read-out: neuronal survival in cultures exposed to glutamate): < 20%

Structure (SMILES): CC1=CC(C)CC(C)OC(=O)CC(c2ccc(O)cc2)NC(=O)C(Cc2c(Br)[nH]c3ccccc23)N(C)C(=O)C(C)NC(=O)C(C)C1 (centres unmarked) [Jasplakinolide, jasplakinolide, reference compound]
- effect on glutamate-induced elevation of [Ca^2+]i [6]: potentiated
- effect on glutamate neurotoxicity ([5]; preincubated 3 h, 10 μM (FIG. 6B legend: 1 h, 5 μM)): significantly potentiated

Structure (SMILES): C=C(C)[C@H]1CN[C@H](C(=O)O)[C@H]1CC(=O)O [Kainate, kainate, reference compound]
- neurons killed by kainate ([7]; control animals receiving i.c.v. saline, 48 hr): Approximately 80%
- neuronal loss in the CA3 region ([7]; intrahippocampal kainate, over 99% of rats (302 rats)): 75-99%

Structure (SMILES): CC(Cc1ccc(O)c(O)c1)C(C)Cc1ccc(O)c(O)c1 (centres unmarked) [nordihydro-guaiaretic acid, Nordihydroguaiaretic acid]
- effect on neurotoxicity of iron ([3]; 50 μg/ml vitamin E or 2 μM NDGA, 1 h preincubation): completely blocked
